Reference: US20210238162A1, “CHEMICAL COMPOUNDS” (GlaxoSmithKline Intellectual Property Development Limited, priority 2015, published 2021)
Counter-ions that a name gives are not always drawn. Like-named read-outs stand apart in the source and are kept apart here.

Molecular target: T1, haematopoietic prostaglandin D synthase (H-PGDS) (Homo sapiens, UniProt O60760)
T1 construct: Full length human H-PGDS cDNA (Invitrogen Ultimate ORF IOH13026) was amplified by PCR; made in house; host or cells: E. coli BL21 (DE3*), vector pET22b+
T1 sequence (O60760 whole entry): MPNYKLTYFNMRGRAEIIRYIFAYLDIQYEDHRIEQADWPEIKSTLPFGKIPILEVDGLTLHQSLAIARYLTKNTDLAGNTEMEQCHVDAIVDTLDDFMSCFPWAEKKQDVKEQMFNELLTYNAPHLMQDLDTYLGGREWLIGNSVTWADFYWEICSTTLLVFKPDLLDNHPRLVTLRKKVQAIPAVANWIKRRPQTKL
Test: H-PGDS RapidFire High Throughput Mass Spectrometry Assay
Assay type: biochemical
How it was run: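 PGH2 (~10 μM burst) generated in situ from arachidonic acid by FLAG-tagged human COX-2 (Sf9-expressed), then converted to PGD2 by full-length human His-tagged H-PGDS from E. coli. PGD2 and PGF2α (substrate surrogate) quantified by RapidFire SPE-triple quadrupole MS; percent conversion calculated.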

[1] = H-PGDS RapidFire MS assay, mean pIC50, read-out: Potency Range (mean pIC50) (converted)
[2] = in at least one experimental run, read-out: H-PGDS pIC50 value (converted)

| SMILES | IC50 [1] | IC50 [2] |
| --- | --- | --- |
| NS(=O)(=O)O[C@H]1CC[C@H](NC(=O)c2cnc3cc(OC(F)F)c(Cl)cc3c2)CC1 [Example 141, trans-4-(6-Chloro-7-(difluoromethoxy)quinoline-3-carboxamido)cyclohexyl sulfamate] | < 10 nM | – |
| O=C1CC(NC(=O)c2cnc3cc(OC(F)F)c(Cl)cc3c2)C1 [Example 142, 6-Chloro-7-(difluoromethoxy)-N-(3-oxocyclobutyl)quinoline-3-carboxamide] | 10 to 79.4 nM | 39.8 nM |
| C[C@]1(O)CC[C@H](NC(=O)c2cnc3cc(OC(F)F)c(Cl)cc3c2)CC1 [Example 143, 6-Chloro-7-(difluoromethoxy)-N-((1r,4r)-4-hydroxy-4-methylcyclohexyl)quinoline-3-carboxamide] | < 10 nM | – |
| C[C@@H]1CNC(=O)[C@H]1NC(=O)c1cnc2cc(OC(F)F)c(Cl)cc2c1 [Example 144, 6-Chloro-7-(difluoromethoxy)-N-((3S,4R)-4-methy-2-oxopyrrolidin-3-yl)quinoline-3-carboxamide] | < 10 nM | – |
| CC1(O)CCC(NC(=O)c2cnc3cc(OC(F)F)c(Cl)cc3c2)C1 (stereo not shown) [Example 145, 6-Chloro-7-(difluoromethoxy)-N-(3-hydroxy-3-methylcyclopentyl)quinoline-3-carboxamide] | 10 to 79.4 nM | – |
| C[C@]1(O)CC[C@@H](NC(=O)c2cnc3cc(OC(F)F)c(Cl)cc3c2)CC1 [Example 147, 6-Chloro-7-(difluoromethoxy)-N-((1s,4s)-4-hydroxy-4-methylcyclohexyl)quinoline-3-carboxamide] | 10 to 79.4 nM | – |
| O=C(NC1CCOCC1)c1cnc2cc(OC(F)F)c(Cl)cc2c1 [Example 148, 6-Chloro-7-(difluoromethoxy)-N-(tetrahydro-2H-pyran-4-yl)quinoline-3-carboxamide] | 10 to 79.4 nM | – |
| O=C(NC1CCCOC1)c1cnc2cc(OC(F)F)c(Cl)cc2c1 (stereo not shown) [Example 149, 6-Chloro-7-(difluoromethoxy)-N-(tetrahydro-2H-pyran-3-yl)quinoline-3-carboxamide] | 10 to 79.4 nM | – |
| CC1(C)CC(NC(=O)c2cnc3cc(OC(F)F)c(Cl)cc3c2)CCO1 (stereo not shown) [Example 150, 6-Chloro-7-(difluoromethoxy)-N-(2,2-dimethyltetrahydro-2H-pyran-4-yl)quinoline-3-carboxamide] | 10 to 79.4 nM | 39.8 nM |
| CC(C)(O)[C@H]1CC[C@H](NC(=O)c2cnc3cc(C4CC4(F)F)c(F)cc3c2)CC1 (stereo partly drawn) [Example 151, 7-(2,2-Difluorocyclopropyl)-6-fluoro-N-(trans-4-(2-hydroxypropan-2-yl)cyclohexyl)quinoline-3-carboxamide] | 10 to 79.4 nM | – |
| CC(C)(O)[C@H]1CC[C@H](NC(=O)c2cnc3cc(OC(F)F)c(Br)cc3c2)CC1 [Example 152, 6-Bromo-7-(difluoromethoxy)-N-(trans-4-(2-hydroxypropan-2-yl)cyclohexyl)quinoline-3-carboxamide] | < 10 nM | – |
| O=C(N[C@H]1CC[C@H](N[C@@H](CO)C(F)(F)F)CC1)c1cnc2cc(OC(F)F)c(Br)cc2c1 [Example 153, 6-Bromo-7-(difluoromethoxy)-N-(trans-4-(((S)-1,1,1-trifluoro-3-hydroxypropan-2-yl)amino)cyclohexyl)quinoline-3-carboxamide] | < 10 nM | – |
| O=C(N[C@H]1CCNC1=O)c1cnc2cc(OC(F)F)c(Br)cc2c1 [Example 154, (S)-6-Bromo-7-(difluoromethoxy)-N-(2-oxopyrrolidin-3-yl)quinoline-3-carboxamide] | < 10 nM | – |
| O=C(N[C@H]1CC[C@H](N[C@H](CO)C(F)(F)F)CC1)c1cnc2cc(OC(F)F)c(Br)cc2c1 [Example 155, 6-Bromo-7-(difluoromethoxy)-N-(trans-4-(((R)-1,1,1-trifluoro-3-hydroxypropan-2-yl)amino)cyclohexyl)quinoline-3-carboxamide] | < 10 nM | – |
| C[C@]1(O)C[C@@H](NC(=O)c2cnc3cc(OC(F)F)c(Br)cc3c2)C1 [Example 157, 6-Bromo-7-(difluoromethoxy)-N-((1s,3s)-3-hydroxy-3-methylcyclobutyl)quinoline-3-carboxamide] | 10 to 79.4 nM | – |
| C[C@@H](N[C@H]1CC[C@H](NC(=O)c2cnc3cc(OC(F)F)c(Br)cc3c2)CC1)C(F)F [Example 158, 6-Bromo-7-(difluoromethoxy)-N-(trans-4-(((R)-1,1-difluoropropan-2-yl)amino)cyclohexyl)quinoline-3-carboxamide] | < 10 nM | – |
| C[C@H](N[C@H]1CC[C@H](NC(=O)c2cnc3cc(OC(F)F)c(Br)cc3c2)CC1)C(F)F [Example 159, 6-Bromo-7-(difluoromethoxy)-N-(trans-4-(((S)-1,1-difluoropropan-2-yl)amino)cyclohexyl)quinoline-3-carboxamide] | < 10 nM | – |
| CN(C)c1cc2ncc(C(=O)N[C@H]3CC[C@H](C(C)(C)O)CC3)cc2cc1F [Example 160, 7-(Dimethylamino)-6-fluoro-N-(trans-4-(2-hydroxypropan-2-yl)cyclohexyl)quinoline-3-carboxamide] | < 10 nM | 3.98 nM |

| SMILES | IC50 [1] | IC50 [2] |
| --- | --- | --- |
| CSc1cc2ncc(C(=O)N[C@H]3CC[C@H](C(C)(C)O)CC3)cc2cc1F [Example 161, 6-Fluoro-N-(trans-4-(2-hydroxypropan-2-yl)cyclohexyl)-7-(methylthio)quinoline-3-carboxamide] | < 10 nM | – |
| CC(C)(O)[C@H]1CC[C@H](NC(=O)c2cnc3cc(N4CCC4)c(F)cc3c2)CC1 [Example 162, 7-(Azetidin-1-yl)-6-fluoro-N-(trans-4-(2-hydroxypropan-2-yl)cyclohexyl)quinoline-3-carboxamide] | < 10 nM | – |
| CC(C)(O)[C@H]1CC[C@H](NC(=O)c2cnc3cc(N4CCCC4)c(F)cc3c2)CC1 [Example 163, 6-Fluoro-N-(trans-4-(2-hydroxypropan-2-yl)cyclohexyl)-7-(pyrrolidin-1-yl)quinoline-3-carboxamide] | 100 to 1000 nM | – |
| CC(C)(O)[C@H]1CC[C@H](NC(=O)c2cnc3cc(N4CC(F)C4)c(F)cc3c2)CC1 [Example 164, 6-Fluoro-7-(3-fluoroazetidin-1-yl)-N-(trans-4-(2-hydroxypropan-2-yl)cyclohexyl)quinoline-3-carboxamide] | < 10 nM | – |
| CC1(F)CN(c2cc3ncc(C(=O)N[C@H]4CC[C@H](C(C)(C)O)CC4)cc3cc2F)C1 [Example 165, 6-Fluoro-7-(3-fluoro-3-methylazetidin-1-yl)-N-(trans-4-(2-hydroxypropan-2-yl)cyclohexyl)quinoline-3-carboxamide] | 10 to 79.4 nM | 63.1 nM |
| O=C(N[C@H]1CCNC1=O)c1cnc2cc(N3CCC3)c(Cl)cc2c1 [Example 166, (S)-7-(Azetidin-1-yl)-6-chloro-N-(2-oxopyrrolidin-3-yl)quinoline-3-carboxamide trifluoroacetic Acid Salt] | < 10 nM | – |
| CC1(O)CC(NC(=O)c2cnc3cc(N4CCC4)c(Cl)cc3c2)C1 (stereo not shown) [Example 167, 7-(Azetidin-1-yl)-6-chloro-N-(3-hydroxy-3-methylcyclobutyl)quinoline-3-carboxamide trifluoroacetic Acid Salt] | < 10 nM | – |
| CC(C)(O)[C@H]1CC[C@H](NC(=O)c2cnc3cc(N=[N+]=[N-])c(Cl)cc3c2)CC1 [Example 168, 7-Azido-6-chloro-N-(trans-4-(2-hydroxypropan-2-yl)cyclohexyl)quinoline-3-carboxamide] | 10 to 79.4 nM | – |
| O=C(N[C@H]1CCNC1=O)c1cnc2cc(N3CC(F)C3)c(Cl)cc2c1 [Example 169, (S)-6-Chloro-7-(3-fluoroazetidin-1-yl)-N-(2-oxopyrrolidin-3-yl)quinoline-3-carboxamide] | < 10 nM | – |
| CC(=O)c1cc2ncc(C(=O)N[C@H]3CC[C@H](C(C)(C)O)CC3)cc2cc1Cl [Example 172, 7-Acetyl-6-chloro-N-(trans-4-(2-hydroxypropan-2-yl)cyclohexyl)quinoline-3-carboxamide] | < 10 nM | – |
| CC(C)(O)[C@H]1CC[C@H](NC(=O)c2cnc3cc(N)c(F)cc3c2)CC1 [Example 173, 7-Amino-6-fluoro-N-(trans-4-(2-hydroxypropan-2-yl)cyclohexyl)quinoline-3-carboxamide] | 100 to 1000 nM | – |
| C[C@H]1CCN1c1cc2ncc(C(=O)N[C@H]3CC[C@H](C(C)(C)O)CC3)cc2cc1F [Example 174, 6-Fluoro-N-(trans-4-(2-hydroxypropan-2-yl)cyclohexyl)-7-((S)-2-methylazetidin-1-yl)quinoline-3-carboxamide] | 10 to 79.4 nM | – |
| C[C@@H]1CCN1c1cc2ncc(C(=O)N[C@H]3CC[C@H](C(C)(C)O)CC3)cc2cc1F [Example 175, 6-Fluoro-N-(trans-4-(2-hydroxypropan-2-yl)cyclohexyl)-7-((R)-2-methylazetidin-1-yl)quinoline-3-carboxamide] | 100 to 1000 nM | – |
| C[C@H]1CCN1c1cc2ncc(C(=O)N[C@H]3CCNC3=O)cc2cc1F [Example 176, 6-Fluoro-7-((S)-2-methylazetidin-1-yl)-N—((S)-2-oxopyrrolidin-3-yl)quinoline-3-carboxamide] | 10 to 79.4 nM | – |
| CC(C)(O)[C@H]1CC[C@H](NC(=O)c2cnc3cc(N4CC(F)(F)C4)c(F)cc3c2)CC1 [Example 177, 7-(3,3-Difluoroazetidin-1-yl)-6-fluoro-N-(trans-4-(2-hydroxypropan-2-yl)cyclohexyl)quinoline-3-carboxamide] | 10 to 79.4 nM | 20 nM |
| CCOc1cc2ncc(C(=O)N[C@H]3CC[C@H](C(C)(C)O)CC3)cc2cc1F [Example 178, 7-Ethoxy-6-fluoro-N-(trans-4-(2-hydroxypropan-2-yl)cyclohexyl)quinoline-3-carboxamide] | 10 to 79.4 nM | – |
| CC(C)(O)[C@H]1CC[C@H](NC(=O)c2cnc3cc(C4CCC4)c(Cl)cc3c2)CC1 [Example 179, 6-Chloro-7-cyclobutyl-N-(trans-4-(2-hydroxypropan-yl)cyclohexyl)quinoline-3-carboxamide] | < 10 nM | – |
